Reference: ChEMBL document CHEMBL1201862, “PubChem BioAssay data set” (2004)
Calls of active or inactive are those of the source.

Tests used:
[1] = system: HEK293; test: cells; assay type: functional, cell-based; conditions: Homo sapiens
[2] = system: HEK293; test: cells; assay type: functional, cell-based; conditions: Homo sapiens; remark: listed apart in the source
[3] = system: HEK293; test: cells; assay type: functional, cell-based; conditions: Homo sapiens; remark: listed apart in the source
[4] = system: HEK293; test: NOD2 signaling inhibitors in MDP-stimulated cells, cell-based, uHTS, luminescence (AID 2001); assay type: functional; conditions: Homo sapiens
[5] = target: Nucleotide-binding oligomerization domain-containing protein 2 (Homo sapiens, UniProt Q9HC29); test: inhibition of NOD2-driven NF-kB reporter – cell-based, luminescence, uHTS, HEK293 (AID 1566); assay type: functional
[6] = system: HEK293; test: inhibition of NOD1-driven NF-kB reporter – cell-based, luminescence, uHTS, primary screen (AID 1578); assay type: functional; conditions: Homo sapiens
[7] = target: T1, Caspase-6 (Homo sapiens, UniProt P55212); test: inhibition of CASP6 peptide cleavage – biochemical, VEID-R110 fluorescence, cherry-pick, dose response (AID 720632)
T1 sequence (P55212 whole entry): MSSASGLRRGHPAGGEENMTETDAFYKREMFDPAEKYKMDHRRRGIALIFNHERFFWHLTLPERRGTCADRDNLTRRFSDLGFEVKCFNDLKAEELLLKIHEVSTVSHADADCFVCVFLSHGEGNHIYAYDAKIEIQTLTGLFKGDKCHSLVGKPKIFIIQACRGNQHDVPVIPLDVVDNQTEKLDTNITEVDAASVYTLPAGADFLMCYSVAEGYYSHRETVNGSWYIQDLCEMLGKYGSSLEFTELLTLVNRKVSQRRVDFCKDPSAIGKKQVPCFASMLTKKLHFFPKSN

[8] = target: Troponin, cardiac muscle (Homo sapiens, UniProt P19429+P45379+P63316); test: compounds desensitizing RTF to calcium – biochemical, fluorescence, cardiac regulated thin filaments, triplicate IC50, dose response (AID 504742); assay type: protein-complex assay
[9] = target: Large T antigen (Simian virus 40, UniProt P03070); assay type: functional, Betapolyomavirus macacae;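 also: Confirmatory-stage PubChem screen for compounds that inhibit SV40 T antigen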
[10] = target: Lysine-specific demethylase 4A (Homo sapiens, UniProt O75164); test: inhibition of JMJD2A H3K9me3 demethylation – biochemical, DELFIA europium, cherry-picked samples, selectivity assay for GASC-1 inhibitor project, dose response (AID 488840)
[11] = target: Matrix metalloproteinase-14 (Homo sapiens, UniProt P50281); test: Dose Response confirmation of uHTS hits for a small molecule inhibitors of MT1-MMP activation in a fluorescence assay set 2.; assay type: functional
[12] = target: RNA-editing ligase 1, mitochondrial (Trypanosoma brucei brucei, UniProt P86926); test: inhibition of trypanosome RNA editing ligase – biochemical, fluorescence, Trypanosoma brucei, dose response (AID 1117295); assay type: functional
[13] = target: T2, Streptokinase A (Streptococcus pyogenes serotype M1, UniProt P10520); test: viability-normalized secreted streptokinase activity reduction – plasminogen activation absorbance, OD405, dose response (AID 1914); assay type: functional, Streptococcus pyogenes M1 GAS;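 also: secreted streptokinase activity via plasminogen activation per viability signal from cell pellet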
T2 sequence (P10520 whole entry): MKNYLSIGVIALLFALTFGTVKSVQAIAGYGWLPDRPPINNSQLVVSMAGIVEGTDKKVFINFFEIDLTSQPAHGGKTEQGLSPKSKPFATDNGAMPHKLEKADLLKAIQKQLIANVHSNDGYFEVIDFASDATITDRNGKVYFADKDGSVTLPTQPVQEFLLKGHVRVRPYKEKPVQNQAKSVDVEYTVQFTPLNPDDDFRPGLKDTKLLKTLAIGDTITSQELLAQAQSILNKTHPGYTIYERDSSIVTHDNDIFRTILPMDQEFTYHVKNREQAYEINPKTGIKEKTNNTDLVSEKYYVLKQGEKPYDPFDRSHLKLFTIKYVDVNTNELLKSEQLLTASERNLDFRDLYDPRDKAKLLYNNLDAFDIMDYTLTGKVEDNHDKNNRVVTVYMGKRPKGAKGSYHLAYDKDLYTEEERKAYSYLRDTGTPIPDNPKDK

[14] = target: NS3 (Hepatitis C virus, UniProt A3EZJ3); test: PubChem AID 2173; parameters: species or system Hepacivirus hominis
[15] = target: Caspase-7 (Homo sapiens, UniProt P55210); test: caspase-7 enzyme inhibition, selectivity check – biochemical, DEVD-R110 fluorescence, cherry-pick, selectivity assay for caspase-6 inhibitor project, dose response (AID 743295); assay type: functional
[16] = target: Heat shock protein HSP 90-alpha (Homo sapiens, UniProt P07900); assay type: functional, organism-based
[17] = target: Caspase-8 (Homo sapiens, UniProt Q14790); test: inhibitors of purified CASP8 protease – biochemical, Z-IETD-R110 fluorescence, cherry-picked samples, selectivity assay for caspase-6 inhibitor project, dose response (AID 743294)
[18] = target: T3, Lysine-specific demethylase 4C (Homo sapiens, UniProt Q9H3R0); test: inhibition of JMJD2C H3K9me3 demethylation – biochemical, DELFIA europium, cherry-picked samples, dose response (AID 488835); assay type: functional
T3 sequence (Q9H3R0 whole entry): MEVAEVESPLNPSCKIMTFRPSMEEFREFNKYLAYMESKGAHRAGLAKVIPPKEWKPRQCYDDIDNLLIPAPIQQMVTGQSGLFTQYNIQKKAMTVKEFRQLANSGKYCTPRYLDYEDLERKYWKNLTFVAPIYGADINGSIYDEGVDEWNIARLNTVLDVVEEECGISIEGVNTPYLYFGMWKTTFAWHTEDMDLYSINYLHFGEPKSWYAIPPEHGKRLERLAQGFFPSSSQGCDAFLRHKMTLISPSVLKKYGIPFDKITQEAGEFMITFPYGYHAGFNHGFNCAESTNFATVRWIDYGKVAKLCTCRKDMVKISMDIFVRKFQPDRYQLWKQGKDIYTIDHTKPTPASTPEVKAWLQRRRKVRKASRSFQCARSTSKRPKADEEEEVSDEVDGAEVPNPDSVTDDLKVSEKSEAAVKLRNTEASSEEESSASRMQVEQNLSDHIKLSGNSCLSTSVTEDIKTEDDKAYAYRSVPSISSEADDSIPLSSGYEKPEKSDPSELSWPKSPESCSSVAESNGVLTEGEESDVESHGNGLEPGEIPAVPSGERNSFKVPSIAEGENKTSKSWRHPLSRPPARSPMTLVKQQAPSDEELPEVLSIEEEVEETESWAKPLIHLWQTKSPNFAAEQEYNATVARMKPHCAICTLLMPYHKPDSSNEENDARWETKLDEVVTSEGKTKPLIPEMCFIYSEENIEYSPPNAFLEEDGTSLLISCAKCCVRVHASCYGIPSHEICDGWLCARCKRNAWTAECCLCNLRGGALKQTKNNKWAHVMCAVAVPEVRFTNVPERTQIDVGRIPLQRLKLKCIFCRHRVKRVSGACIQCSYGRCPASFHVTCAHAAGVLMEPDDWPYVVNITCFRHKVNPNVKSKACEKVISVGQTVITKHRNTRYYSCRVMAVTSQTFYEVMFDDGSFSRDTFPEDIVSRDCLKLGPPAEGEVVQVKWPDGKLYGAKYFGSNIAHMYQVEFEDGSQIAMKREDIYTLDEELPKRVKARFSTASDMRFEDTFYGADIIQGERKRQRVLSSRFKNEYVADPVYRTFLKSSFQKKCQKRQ

[19] = target: T4, Caspase-3 (Homo sapiens, UniProt P42574); test: human caspase-3 protease activity blockade – biochemical, fluorescence, cherry-picked samples, selectivity assay for caspase-6 allosteric inhibitor project, dose response (AID 743291)
T4 sequence (P42574 whole entry): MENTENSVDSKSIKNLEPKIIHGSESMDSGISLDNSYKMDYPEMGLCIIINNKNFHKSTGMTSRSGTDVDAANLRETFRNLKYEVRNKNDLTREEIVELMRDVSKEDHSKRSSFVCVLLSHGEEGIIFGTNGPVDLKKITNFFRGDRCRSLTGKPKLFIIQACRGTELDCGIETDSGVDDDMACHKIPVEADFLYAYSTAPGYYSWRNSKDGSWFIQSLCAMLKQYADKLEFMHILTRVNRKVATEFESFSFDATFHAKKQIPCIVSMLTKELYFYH

[20] = system: Streptococcus; test: GAS UMAA2166 growth inhibition – luminescence, BacTiterGlo, counter-screen for streptokinase expression inhibitor project, dose response (AID 1915); assay type: functional, organism-based;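 also: potency for reduction of bacterial viability or growth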
[21] = target: Caspase-9 (Homo sapiens, UniProt P55211); test: inhibitors of purified CASP9 protease – biochemical, fluorescence, plate reader, cherry-picked samples, selectivity assay for caspase-6 inhibitor project, dose response (AID 743293)
[22] = system: Streptococcus sp. 'group A'; test: Streptococcus pyogenes SK(-)GAS viability under kanamycin – luminescence, BacTiterGlo, confirmation, counter-screen for streptokinase expression inhibitor project, dose response (AID 1900); assay type: functional, organism-based
[23] = target: 1-phosphatidylinositol 4,5-bisphosphate phosphodiesterase beta-3 (Homo sapiens, UniProt Q01970); test: Fluorescence-based biochemical high throughput dose response assay to identify inhibitors of phospholipase C isozymes (PLC-B3).
[24] = system: Vero; test: viability of Vero cells under compound – cytotoxicity control for flavivirus capping enzyme inhibitors (AID 588742); assay type: functional; conditions: Chlorocebus sabaeus
[25] = target: 1-phosphatidylinositol 4,5-bisphosphate phosphodiesterase gamma-1 (Homo sapiens, UniProt P19174); test: Counterscreen for inhibitors of phospholipase C isozymes (PLC-B3): Fluorescence-based biochemical high throughput dose response assay to identify inhibitors of phospholipase C isozymes (PLC-gamma1).
[26] = NIH-3T3 fibroblast cytotoxicity, dose response, cytotoxicity control, cell-based, fluorescence, Alamar Blue, secondary assay (AID 2327); assay type: functional;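 also: NIH-3T3 mouse fibroblasts cultured with fluconazole at 8 µg/mL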
[27] = fluconazole-exposed Candida albicans growth modulators – fluorescence, retest, confirmation (AID 2467); assay type: functional, cell-based
[28] = target: T5, Intestinal-type alkaline phosphatase (Homo sapiens, UniProt P09923); test: activation of human intestinal alkaline phosphatase – biochemical, luminescent, uHTS hits, set 2, dose response (AID 488817); assay type: functional;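 also: potency of activators that raise enzyme activity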
[29] = target: T5, Intestinal-type alkaline phosphatase; test: human intestinal alkaline phosphatase activators, dose response, biochemical, luminescence, uHTS hits (AID 463120); assay type: functional
[30] = target: Intestinal-type alkaline phosphatase (Mus musculus, UniProt P24822); test: PubChem AID 488875; assay type: functional
[31] = target: T6, Alkaline phosphatase, tissue-nonspecific isozyme (Homo sapiens, UniProt P05186); test: activation of tissue-nonspecific alkaline phosphatase – biochemical, TNAP isozyme, human IAP uHTS hits, selectivity assay for human IAP activator project, dose response (AID 488886); assay type: functional;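 also: potency of compounds raising TNAP activity as a selectivity check on IAP activators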
T6 sequence (P05186 whole entry): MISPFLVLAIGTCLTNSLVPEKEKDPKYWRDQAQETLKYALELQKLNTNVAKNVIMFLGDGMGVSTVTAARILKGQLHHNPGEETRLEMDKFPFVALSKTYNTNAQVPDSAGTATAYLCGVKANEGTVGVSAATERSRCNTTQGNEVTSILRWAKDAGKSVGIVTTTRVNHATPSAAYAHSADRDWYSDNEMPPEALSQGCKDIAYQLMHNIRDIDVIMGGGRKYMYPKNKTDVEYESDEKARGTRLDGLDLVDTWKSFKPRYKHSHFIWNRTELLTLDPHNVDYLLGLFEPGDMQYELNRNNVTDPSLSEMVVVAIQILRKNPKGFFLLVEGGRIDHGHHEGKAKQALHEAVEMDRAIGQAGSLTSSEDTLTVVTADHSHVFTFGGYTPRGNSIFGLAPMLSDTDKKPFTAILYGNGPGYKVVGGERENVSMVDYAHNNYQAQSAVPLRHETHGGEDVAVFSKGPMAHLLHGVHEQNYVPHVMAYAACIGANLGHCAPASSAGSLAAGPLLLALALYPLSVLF

SMILES: CC(=O)c1ccc(Nc2nc3ccccc3nc2NS(=O)(=O)c2cccs2)cc1
- IC50 [1]: > 20 µM (inactive)
- IC50 [2]: 15.6 µM (active)
- IC50 [3]: > 20 µM (inactive)
- IC50 [4]: 9.59 µM (active)
- EC50 [5]: 6.47 µM (active)
- EC50 [6]: 8.18 µM (active)

SMILES: O=c1cc2oc3cc(O)c(O)cc3c(-c3ccccc3[N+](=O)[O-])c-2cc1O
- AC50 [7]: 0.018 µM (active)
- IC50 [8]: 1.64 µM (active)
- IC50 [9]: 5.91 µM (active)
- AC50 [10]: 2.01 µM (active)
- IC50 [11]: 17.9 µM (active)
- IC50 [12]: > 96.6 µM (inactive)
- EC50 [13]: 11.2 µM (active)
- IC50 [14]: 0.99 µM (active)
- AC50 [15]: 1.33 µM (active)
- AC50 [16]: 2.9 µM (active)
- AC50 [17]: 41.3 µM (active)
- AC50 [18]: 1.97 µM (active)
- AC50 [19]: 0.122 µM (active)
- EC50 [20]: 10.2 µM (active)
- AC50 [21]: > 70 µM (inactive)
- EC50 [22]: 7.94 µM (active)
- IC50 [23]: > 123 µM (inactive)
- CC50 [24]: 12.2 µM (active)
- IC50 [25]: 67.5 µM (inactive)
- EC50 [26]: 8.25 µM (active)
- EC50 [27]: 1.07 µM (active)

SMILES: COc1ccccc1CNC(=O)CN(c1ccc(C)cc1)S(=O)(=O)c1c(C)noc1C
- EC50 [28]: 99 µM (active)
- EC50 [29]: 86 µM (active)
- EC50 [30]: 67.5 µM (active)
- EC50 [31]: 76.2 µM (active)
